Patent US20080090734A1, “DRUG SCREENING AND TARGET IDENTIFICATION USING SPR IMAGING OF TARGET PROTEIN ARRAYS” (The Trustees of California State University, priority 2006, published 2008)

Tests used:
Test in all cases: Antibiotic susceptibility profile
Type in all cases: cell-based, Acinetobacter baumannii
Set-up in all cases: key: Resistance; Intermediate; Susceptible
[1] = test system: A. baumannii clinical isolate LAC 01
Excerpt: (§1) We obtained over thirty clinical isolates of A. baumannii from nosocomial infections in New York City and Los Angeles. […] Only antibiotics with breakpoints for A. baumannii were used. […] Isolates LA 01 to 20 were acquired from Los Angels County while NY-A to NY-H were obtained from New York City.
(§2) Antibiotic susceptibility profiles of clinical isolates of A. baumannii and reference strains. R, I, and S denote Resistance, Intermediate and Susceptible, respectively. Genetic Profiling of Clinical Isolates of A. baumannii

[2] = test system: A. baumannii clinical isolate LAC 02
Excerpt: as §1, §2

[3] = test system: A. baumannii clinical isolate LAC 03
Excerpt: as §1, §2

[4] = test system: A. baumannii clinical isolate LAC 04
Excerpt: as §1, §2

[5] = test system: A. baumannii clinical isolate LAC 05
Excerpt: as §1, §2

[6] = test system: A. baumannii clinical isolate LAC 06
Excerpt: as §1, §2

[7] = test system: A. baumannii clinical isolate LAC 07
Excerpt: as §1, §2

[8] = test system: A. baumannii clinical isolate LAC 08
Excerpt: as §1, §2

[9] = test system: A. baumannii clinical isolate LAC 09
Excerpt: as §1, §2

[10] = test system: A. baumannii clinical isolate LAC 10
Excerpt: as §1, §2

[11] = test system: A. baumannii clinical isolate LAC 11
Excerpt: as §1, §2

[12] = test system: A. baumannii clinical isolate LAC 12
Excerpt: as §1, §2

[13] = test system: A. baumannii clinical isolate LAC 13
Excerpt: as §1, §2

[14] = test system: A. baumannii clinical isolate LAC 14
Excerpt: as §1, §2

[15] = test system: A. baumannii clinical isolate LAC 15
Excerpt: as §1, §2

[16] = test system: A. baumannii clinical isolate LAC 16
Excerpt: as §1, §2

[17] = test system: A. baumannii clinical isolate LAC 17
Excerpt: as §1, §2

[18] = test system: A. baumannii clinical isolate LAC 18
Excerpt: as §1, §2

[19] = test system: A. baumannii clinical isolate LAC 19
Excerpt: as §1, §2

[20] = test system: A. baumannii clinical isolate LAC 20
Excerpt: as §1, §2

[21] = test system: A. baumannii clinical isolate NY A
Excerpt: as §1, §2

[22] = test system: A. baumannii clinical isolate NY B
Excerpt: as §1, §2

[23] = test system: A. baumannii clinical isolate NY C
Excerpt: as §1, §2

[24] = test system: A. baumannii clinical isolate NY D
Excerpt: as §1, §2

[25] = test system: A. baumannii clinical isolate NY E
Excerpt: as §1, §2

[26] = test system: A. baumannii clinical isolate NY F
Excerpt: as §1, §2

[27] = test system: A. baumannii clinical isolate NY G
Excerpt: as §1, §2

[28] = test system: A. baumannii clinical isolate NY H
Excerpt: as §1, §2

[29] = test system: A. baumannii reference strain 15839; details: strain 15839 (ATCC)
Excerpt: as §1, §2

[30] = test system: A. baumannii reference strain 17978; details: strain 17978 (ATCC)
Excerpt: as §1, §2

[31] = test system: A. baumannii reference strain 19606; details: strain 19606 (ATCC)
Excerpt: as §1, §2

[32] = test system: A. baumannii reference strain AYE
Excerpt: as §1, §2

[33] = test system: A. baumannii reference strain SDF
Excerpt: as §1, §2

## NCC[C@H](O)C(=O)N[C@@H]1C[C@H](N)[C@@H](O[C@H]2O[C@H](CN)[C@@H](O)[C@H](O)[C@H]2O)[C@H](O)[C@H]1O[C@H]1O[C@H](CO)[C@@H](O)[C@H](N)[C@H]1O [AMK, Amikacin]
[1]
  Antibiotic susceptibility: S
[2]
  Antibiotic susceptibility: I
[3]
  Antibiotic susceptibility: I
[4]
  Antibiotic susceptibility: I
[5]
  Antibiotic susceptibility: R
[6]
  Antibiotic susceptibility: S
[7]
  Antibiotic susceptibility: R
[8]
  Antibiotic susceptibility: I
[9]
  Antibiotic susceptibility: R
[10]
  Antibiotic susceptibility: R
[11]
  Antibiotic susceptibility: S
[12]
  Antibiotic susceptibility: S
[13]
  Antibiotic susceptibility: S
[14]
  Antibiotic susceptibility: S
[15]
  Antibiotic susceptibility: R
[16]
  Antibiotic susceptibility: R
[17]
  Antibiotic susceptibility: I
[18]
  Antibiotic susceptibility: I
[19]
  Antibiotic susceptibility: R
[20]
  Antibiotic susceptibility: I
[21]
  Antibiotic susceptibility: I
[22]
  Antibiotic susceptibility: I
[23]
  Antibiotic susceptibility: R
[24]
  Antibiotic susceptibility: R
[25]
  Antibiotic susceptibility: S
[26]
  Antibiotic susceptibility: R
[27]
  Antibiotic susceptibility: S
[28]
  Antibiotic susceptibility: R
[29]
  Antibiotic susceptibility: R
[30]
  Antibiotic susceptibility: S
[31]
  Antibiotic susceptibility: S
[32]
  Antibiotic susceptibility: R
[33]
  Antibiotic susceptibility: S

## C[C@H]1COc2c(N3CCN(C)CC3)c(F)cc3c(=O)c(C(=O)O)cn1c23 [LVX, Levofloxacin]
[1]
  Antibiotic susceptibility: I
[2]
  Antibiotic susceptibility: I
[3]
  Antibiotic susceptibility: R
[4]
  Antibiotic susceptibility: S
[5]
  Antibiotic susceptibility: R
[6]
  Antibiotic susceptibility: S
[7]
  Antibiotic susceptibility: R
[8]
  Antibiotic susceptibility: R
[9]
  Antibiotic susceptibility: R
[10]
  Antibiotic susceptibility: R
[11]
  Antibiotic susceptibility: R
[12]
  Antibiotic susceptibility: R
[13]
  Antibiotic susceptibility: R
[14]
  Antibiotic susceptibility: R
[15]
  Antibiotic susceptibility: R
[16]
  Antibiotic susceptibility: R
[17]
  Antibiotic susceptibility: R
[18]
  Antibiotic susceptibility: R
[19]
  Antibiotic susceptibility: I
[20]
  Antibiotic susceptibility: R
[21]
  Antibiotic susceptibility: I
[22]
  Antibiotic susceptibility: R
[23]
  Antibiotic susceptibility: R
[24]
  Antibiotic susceptibility: R
[25]
  Antibiotic susceptibility: R
[27]
  Antibiotic susceptibility: R
[28]
  Antibiotic susceptibility: I
[29]
  Antibiotic susceptibility: R
[30]
  Antibiotic susceptibility: S
[31]
  Antibiotic susceptibility: S
[32]
  Antibiotic susceptibility: I
[33]
  Antibiotic susceptibility: S

## CN(C)c1ccc(O)c2c1C[C@H]1C[C@H]3[C@H](N(C)C)C(O)=C(C(N)=O)C(=O)[C@@]3(O)C(O)=C1C2=O [MIN, Minocycline]
[1]
  Antibiotic susceptibility: S
[2]
  Antibiotic susceptibility: S
[3]
  Antibiotic susceptibility: S
[4]
  Antibiotic susceptibility: S
[5]
  Antibiotic susceptibility: S
[6]
  Antibiotic susceptibility: S
[7]
  Antibiotic susceptibility: S
[8]
  Antibiotic susceptibility: S
[9]
  Antibiotic susceptibility: S
[10]
  Antibiotic susceptibility: S
[11]
  Antibiotic susceptibility: R
[12]
  Antibiotic susceptibility: R
[13]
  Antibiotic susceptibility: R
[14]
  Antibiotic susceptibility: R
[15]
  Antibiotic susceptibility: S
[16]
  Antibiotic susceptibility: S
[17]
  Antibiotic susceptibility: S
[18]
  Antibiotic susceptibility: S
[19]
  Antibiotic susceptibility: S
[20]
  Antibiotic susceptibility: S
[21]
  Antibiotic susceptibility: S
[22]
  Antibiotic susceptibility: R
[23]
  Antibiotic susceptibility: S
[24]
  Antibiotic susceptibility: S
[25]
  Antibiotic susceptibility: I
[27]
  Antibiotic susceptibility: S
[28]
  Antibiotic susceptibility: S
[29]
  Antibiotic susceptibility: S
[30]
  Antibiotic susceptibility: S
[31]
  Antibiotic susceptibility: S
[32]
  Antibiotic susceptibility: S
[33]
  Antibiotic susceptibility: S
